Results as given in ChEMBL document CHEMBL1201862, “PubChem BioAssay data set” (2004).
Activity calls are given as the source filed them.

How the values were obtained:
[1] = molecular target: T1, Bcl-2-like protein 10 (Homo sapiens, UniProt Q9HD36); assay: Bcl-B/TR3 peptide binding disruption – biochemical, fluorescence polarization, FITC-TR3 peptide, selectivity assay for Bfl-1 inhibitor project, primary screen (AID 748);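 note: fluorescence polarization from a fluorescein-labelled TR3 peptide binding purified Bcl-B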
T1 sequence (Q9HD36 whole entry): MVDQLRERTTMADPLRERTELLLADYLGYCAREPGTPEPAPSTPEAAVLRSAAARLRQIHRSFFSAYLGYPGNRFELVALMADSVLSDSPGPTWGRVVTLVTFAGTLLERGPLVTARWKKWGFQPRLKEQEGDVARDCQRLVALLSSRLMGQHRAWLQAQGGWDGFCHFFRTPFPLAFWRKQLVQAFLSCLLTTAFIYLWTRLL

[2] = molecular target: Peroxisome proliferator-activated receptor gamma/Nuclear receptor coactivator 2 (Homo sapiens, UniProt P37231); type: functional;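 note: agonist potency for raising coactivator recruitment to the receptor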
[3] = molecular target: Peroxisome proliferator-activated receptor gamma/Nuclear receptor coactivator 1 (Homo sapiens, UniProt P37231); type: functional;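 note: agonist potency as compounds enhance coactivator SRC-1 recruitment to PPARgamma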
Sequence of Peroxisome proliferator-activated receptor gamma/Nuclear receptor coactivator 1 (P37231 whole entry): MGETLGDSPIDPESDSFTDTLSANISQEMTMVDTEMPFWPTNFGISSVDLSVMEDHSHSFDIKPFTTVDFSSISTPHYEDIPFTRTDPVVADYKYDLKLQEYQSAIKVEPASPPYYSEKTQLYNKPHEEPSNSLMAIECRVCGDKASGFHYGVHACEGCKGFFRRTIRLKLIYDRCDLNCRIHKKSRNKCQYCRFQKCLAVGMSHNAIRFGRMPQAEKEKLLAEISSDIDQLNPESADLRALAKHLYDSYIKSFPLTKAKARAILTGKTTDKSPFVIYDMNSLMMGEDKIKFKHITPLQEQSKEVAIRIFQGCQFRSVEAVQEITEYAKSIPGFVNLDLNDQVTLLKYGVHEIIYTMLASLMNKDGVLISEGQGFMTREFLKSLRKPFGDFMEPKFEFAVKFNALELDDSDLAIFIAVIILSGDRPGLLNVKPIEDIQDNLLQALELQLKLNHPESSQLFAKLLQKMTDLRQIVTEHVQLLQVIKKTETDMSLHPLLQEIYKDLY
Sequence of Peroxisome proliferator-activated receptor gamma/Nuclear receptor coactivator 1 (Q15788 whole entry, further chain): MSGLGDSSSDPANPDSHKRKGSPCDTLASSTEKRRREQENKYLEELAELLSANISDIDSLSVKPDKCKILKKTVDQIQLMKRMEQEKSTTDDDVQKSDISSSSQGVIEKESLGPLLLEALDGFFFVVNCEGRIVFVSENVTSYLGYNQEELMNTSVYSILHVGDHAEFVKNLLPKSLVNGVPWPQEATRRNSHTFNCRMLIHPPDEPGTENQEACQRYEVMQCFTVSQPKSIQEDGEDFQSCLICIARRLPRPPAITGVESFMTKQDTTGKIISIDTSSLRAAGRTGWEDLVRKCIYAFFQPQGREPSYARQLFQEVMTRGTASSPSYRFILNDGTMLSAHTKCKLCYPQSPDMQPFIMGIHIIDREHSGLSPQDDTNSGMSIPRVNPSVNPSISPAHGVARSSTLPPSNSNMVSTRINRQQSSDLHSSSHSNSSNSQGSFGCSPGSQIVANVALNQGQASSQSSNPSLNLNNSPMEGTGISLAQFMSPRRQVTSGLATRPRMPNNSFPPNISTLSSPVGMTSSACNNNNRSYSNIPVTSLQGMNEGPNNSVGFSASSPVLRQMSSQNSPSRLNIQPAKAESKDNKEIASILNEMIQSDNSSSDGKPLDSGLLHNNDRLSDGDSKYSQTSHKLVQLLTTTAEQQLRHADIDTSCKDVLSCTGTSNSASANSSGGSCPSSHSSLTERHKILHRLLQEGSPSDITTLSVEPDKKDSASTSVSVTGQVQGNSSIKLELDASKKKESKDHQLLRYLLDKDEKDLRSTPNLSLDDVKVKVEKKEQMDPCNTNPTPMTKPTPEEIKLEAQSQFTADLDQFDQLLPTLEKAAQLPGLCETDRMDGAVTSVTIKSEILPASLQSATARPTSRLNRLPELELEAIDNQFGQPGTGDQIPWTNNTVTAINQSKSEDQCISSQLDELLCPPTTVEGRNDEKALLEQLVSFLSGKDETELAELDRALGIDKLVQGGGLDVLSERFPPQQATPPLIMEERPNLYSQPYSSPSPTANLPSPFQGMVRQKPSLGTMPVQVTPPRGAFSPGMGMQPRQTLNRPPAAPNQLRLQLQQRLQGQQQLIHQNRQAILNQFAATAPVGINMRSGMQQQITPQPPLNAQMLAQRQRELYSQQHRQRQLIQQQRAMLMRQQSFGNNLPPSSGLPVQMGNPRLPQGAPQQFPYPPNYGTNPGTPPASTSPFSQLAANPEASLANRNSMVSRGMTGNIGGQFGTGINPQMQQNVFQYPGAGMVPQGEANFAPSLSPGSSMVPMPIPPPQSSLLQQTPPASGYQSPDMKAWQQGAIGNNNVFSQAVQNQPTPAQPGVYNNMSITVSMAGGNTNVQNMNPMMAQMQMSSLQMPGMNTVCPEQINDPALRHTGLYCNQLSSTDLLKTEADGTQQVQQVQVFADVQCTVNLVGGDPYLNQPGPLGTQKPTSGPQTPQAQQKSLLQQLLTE

[4] = molecular target: Peroxisome proliferator-activated receptor gamma/Nuclear receptor coactivator 3 (Homo sapiens, UniProt P37231); type: functional;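 note: agonist potency for raising coactivator recruitment to the receptor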
Sequence of Peroxisome proliferator-activated receptor gamma/Nuclear receptor coactivator 3 (P37231 whole entry): as the sequence (P37231 whole entry) above
Sequence of Peroxisome proliferator-activated receptor gamma/Nuclear receptor coactivator 3 (Q9Y6Q9 whole entry, further chain): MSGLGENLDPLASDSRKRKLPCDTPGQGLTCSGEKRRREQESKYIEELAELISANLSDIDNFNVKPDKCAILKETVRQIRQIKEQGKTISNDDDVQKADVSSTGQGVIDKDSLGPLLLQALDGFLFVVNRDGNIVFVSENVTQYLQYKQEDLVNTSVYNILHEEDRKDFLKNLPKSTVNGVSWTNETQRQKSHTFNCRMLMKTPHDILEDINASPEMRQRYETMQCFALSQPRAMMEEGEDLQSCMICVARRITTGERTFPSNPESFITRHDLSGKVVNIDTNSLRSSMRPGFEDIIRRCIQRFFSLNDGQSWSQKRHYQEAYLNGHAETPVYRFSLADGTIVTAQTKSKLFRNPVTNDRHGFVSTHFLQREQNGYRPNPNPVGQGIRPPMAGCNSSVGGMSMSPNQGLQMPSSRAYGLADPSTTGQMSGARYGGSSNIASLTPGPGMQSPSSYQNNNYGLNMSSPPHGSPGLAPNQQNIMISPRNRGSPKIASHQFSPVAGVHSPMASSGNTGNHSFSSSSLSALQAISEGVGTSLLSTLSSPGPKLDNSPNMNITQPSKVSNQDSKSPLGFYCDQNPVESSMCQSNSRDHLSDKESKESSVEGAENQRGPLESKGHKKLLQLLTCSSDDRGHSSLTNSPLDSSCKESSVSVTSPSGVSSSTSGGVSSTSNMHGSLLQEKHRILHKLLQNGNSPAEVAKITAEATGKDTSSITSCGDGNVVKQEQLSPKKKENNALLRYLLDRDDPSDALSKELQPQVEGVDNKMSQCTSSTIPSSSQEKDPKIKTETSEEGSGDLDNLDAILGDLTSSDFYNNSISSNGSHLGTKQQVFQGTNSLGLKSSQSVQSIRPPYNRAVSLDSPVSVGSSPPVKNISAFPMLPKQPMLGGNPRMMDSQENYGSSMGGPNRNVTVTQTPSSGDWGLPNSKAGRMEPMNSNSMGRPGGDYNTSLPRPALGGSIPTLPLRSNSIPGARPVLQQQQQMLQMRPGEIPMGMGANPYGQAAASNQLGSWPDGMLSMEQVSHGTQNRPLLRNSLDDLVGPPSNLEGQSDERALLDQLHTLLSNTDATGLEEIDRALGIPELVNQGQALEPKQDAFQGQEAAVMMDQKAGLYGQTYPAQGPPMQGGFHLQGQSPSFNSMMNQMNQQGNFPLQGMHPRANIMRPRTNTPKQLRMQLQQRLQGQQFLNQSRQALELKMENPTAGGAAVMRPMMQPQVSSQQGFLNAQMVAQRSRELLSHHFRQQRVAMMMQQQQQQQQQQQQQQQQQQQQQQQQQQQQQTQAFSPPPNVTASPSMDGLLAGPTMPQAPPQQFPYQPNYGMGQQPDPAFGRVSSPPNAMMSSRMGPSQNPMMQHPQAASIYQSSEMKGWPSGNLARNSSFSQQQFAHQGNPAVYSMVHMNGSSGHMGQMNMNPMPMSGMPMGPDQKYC

[5] = molecular target: T2, Protein skinhead-1 (Caenorhabditis elegans, UniProt P34707); type: functional
T2 sequence (P34707 whole entry): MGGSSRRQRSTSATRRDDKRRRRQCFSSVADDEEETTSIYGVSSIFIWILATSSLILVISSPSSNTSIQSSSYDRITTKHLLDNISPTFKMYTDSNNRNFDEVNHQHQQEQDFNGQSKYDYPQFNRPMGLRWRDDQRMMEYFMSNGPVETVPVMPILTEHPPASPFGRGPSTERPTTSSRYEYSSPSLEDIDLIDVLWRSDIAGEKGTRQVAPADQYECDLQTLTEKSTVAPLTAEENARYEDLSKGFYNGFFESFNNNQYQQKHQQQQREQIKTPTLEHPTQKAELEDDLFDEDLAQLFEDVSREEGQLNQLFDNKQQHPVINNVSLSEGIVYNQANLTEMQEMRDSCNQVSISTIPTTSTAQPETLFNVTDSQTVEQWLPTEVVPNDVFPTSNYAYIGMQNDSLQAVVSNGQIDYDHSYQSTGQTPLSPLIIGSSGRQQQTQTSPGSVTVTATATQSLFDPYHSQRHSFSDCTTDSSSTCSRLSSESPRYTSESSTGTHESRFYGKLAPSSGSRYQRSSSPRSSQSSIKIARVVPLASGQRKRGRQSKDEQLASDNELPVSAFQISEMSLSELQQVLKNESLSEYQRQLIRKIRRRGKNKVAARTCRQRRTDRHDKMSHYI

[6] = Luminescence Cell-Based Dose Response HTS to Identify Activators of Luciferase Translation or Activity in H4 […] Cells. [Related pubchem assays: 1829 (Project Summary), 1814 (Primary HTS)]; type: functional
[7] = viability of uninfected HEp-2 cells – cell-based, HTS, cytotoxicity control for RSV inhibitor project, dose response (AID 2410); type: functional; details: human respiratory syncytial virus
[8] = cells
[9] = system: H4; assay: Luminescence Cell-Based Dose Response HTS to Identify Activators of 5'UTR Stem-Loop Driven Prion Protein mRNA Translation in H4 Neuroglioblastoma Cells. [Related pubchem assays: 1829 (Project Summary), 1814 (Primary HTS)]; type: functional; details: Homo sapiens
[10] = system: Vero; assay: cells; type: functional; details: Chlorocebus sabaeus
[11] = system: Vero; assay: cells; type: functional, cell-based; details: Chlorocebus sabaeus
[12] = molecular target: NS3 (Hepatitis C virus, UniProt A3EZJ3); assay: PubChem AID 2173; set-up: species or system Hepacivirus hominis
Sequence of NS3 (A3EZJ3 whole entry): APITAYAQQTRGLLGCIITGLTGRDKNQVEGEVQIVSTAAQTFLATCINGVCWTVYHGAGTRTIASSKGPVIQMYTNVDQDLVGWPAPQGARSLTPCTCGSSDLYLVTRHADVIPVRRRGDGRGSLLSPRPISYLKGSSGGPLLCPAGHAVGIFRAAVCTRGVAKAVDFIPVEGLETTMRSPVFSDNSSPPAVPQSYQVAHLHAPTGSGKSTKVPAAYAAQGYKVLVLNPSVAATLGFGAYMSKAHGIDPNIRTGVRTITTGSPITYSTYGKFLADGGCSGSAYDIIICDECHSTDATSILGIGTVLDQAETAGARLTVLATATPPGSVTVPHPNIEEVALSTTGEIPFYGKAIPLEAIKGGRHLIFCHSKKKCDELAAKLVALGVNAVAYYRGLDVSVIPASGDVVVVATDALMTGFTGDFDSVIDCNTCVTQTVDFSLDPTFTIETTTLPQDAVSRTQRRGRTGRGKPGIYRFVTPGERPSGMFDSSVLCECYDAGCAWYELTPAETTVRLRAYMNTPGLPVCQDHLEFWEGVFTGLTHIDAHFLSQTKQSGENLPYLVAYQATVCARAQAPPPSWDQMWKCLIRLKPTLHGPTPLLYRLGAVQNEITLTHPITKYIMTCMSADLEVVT

[13] = HEK-293T cell viability reduction – luminescence, B-cell screen hits, cytotoxicity control for BCR NF-kB inhibitor project, dose response (AID 489021); type: functional, cell-based;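 note: HEK-293T cells carrying an NF-kB luciferase reporter; cells exposed to compound for about 14 hours before viability readout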
[14] = Luminescence Cell-Based Dose Retest to Confirm Inhibitors of Cancer Stem Cells. [Related pubchem assays (depositor defined):AID2717, AID2721]; type: functional; details: Homo sapiens
[15] = molecular target: T3, Corticotropin-releasing factor receptor 2/Corticotropin-releasing factor-binding protein (Homo sapiens, UniProt P24387+Q13324); assay: activators of CRF receptor 2 with binding protein – uHTS hits, confirmation (AID 602473); type: functional; details: read-out: EC50_Mean
T3 sequence (Q13324 whole entry): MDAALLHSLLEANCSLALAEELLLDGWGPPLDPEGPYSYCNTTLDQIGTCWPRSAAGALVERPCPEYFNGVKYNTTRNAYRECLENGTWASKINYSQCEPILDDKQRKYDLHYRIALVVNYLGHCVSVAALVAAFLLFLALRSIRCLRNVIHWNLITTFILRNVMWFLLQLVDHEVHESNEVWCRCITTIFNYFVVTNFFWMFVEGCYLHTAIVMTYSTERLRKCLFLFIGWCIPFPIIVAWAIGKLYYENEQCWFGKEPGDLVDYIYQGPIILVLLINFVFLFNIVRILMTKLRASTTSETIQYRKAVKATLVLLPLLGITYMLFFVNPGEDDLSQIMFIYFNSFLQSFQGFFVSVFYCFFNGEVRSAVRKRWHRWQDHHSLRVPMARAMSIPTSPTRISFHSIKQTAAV
T3 sequence (P24387 whole entry): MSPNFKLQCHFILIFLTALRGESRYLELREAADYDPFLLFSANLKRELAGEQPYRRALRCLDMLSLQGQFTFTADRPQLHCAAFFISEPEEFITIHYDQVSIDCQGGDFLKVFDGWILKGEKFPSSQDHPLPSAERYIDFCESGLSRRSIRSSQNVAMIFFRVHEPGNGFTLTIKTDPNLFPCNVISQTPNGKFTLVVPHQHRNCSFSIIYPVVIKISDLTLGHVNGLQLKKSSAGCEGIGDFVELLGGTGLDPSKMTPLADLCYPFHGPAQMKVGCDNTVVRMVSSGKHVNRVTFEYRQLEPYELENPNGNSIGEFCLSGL

[16] = molecular target: Glyceraldehyde-3-phosphate dehydrogenase (Homo sapiens, UniProt P04406)
Sequence of Glyceraldehyde-3-phosphate dehydrogenase (P04406 whole entry): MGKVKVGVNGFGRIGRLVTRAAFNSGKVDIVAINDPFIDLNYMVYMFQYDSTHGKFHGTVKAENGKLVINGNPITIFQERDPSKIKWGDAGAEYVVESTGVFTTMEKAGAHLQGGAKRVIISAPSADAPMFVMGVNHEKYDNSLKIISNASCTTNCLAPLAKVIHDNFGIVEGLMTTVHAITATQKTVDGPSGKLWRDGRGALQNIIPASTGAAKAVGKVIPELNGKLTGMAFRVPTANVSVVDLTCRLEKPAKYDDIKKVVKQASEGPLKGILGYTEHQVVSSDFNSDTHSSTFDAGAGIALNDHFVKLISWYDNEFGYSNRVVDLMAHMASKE

[17] = alpha-synuclein stem-loop luciferase translation blockers – H4 neuroglioma cells, luminescence, confirmation (AID 1988); type: functional, cell-based
[18] = Luminescence Cell-Based Dose Response HTS to Identify Inhibitors of 5'UTR Stem-Loop Driven Prion Protein mRNA Translation in H4 Neuroglioblastoma Cells. [Related pubchem assays: 1827 (Project Summary), 1813 (Primary HTS)]; type: functional
[19] = cells; type: functional, cell-based
[20] = alpha-synuclein stem-loop translation blockers – luminescence, H4 neuroglioblastoma cells, dose confirmation, confirmation (AID 2454); type: functional, cell-based;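 note: H4 neuroglioblastoma cells carrying an alpha-synuclein 5'UTR luciferase reporter; potency for inhibition of the luciferase signal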
[21] = luciferase reporter signal suppression in cells – H4 neuroglioma cells, luminescence, dose response (AID 1990); type: functional, cell-based
[22] = luciferase reporter signal reduction – luminescence, H4-C neuroglioblastoma cells, dose response (AID 2458); type: functional, cell-based;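 note: H4 neuroglioblastoma cells stably carrying a luciferase reporter gene fusion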
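Throughout, for AC50: cells exposed to compound for roughly 70 hours or longer before luminescence read.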

For `O=C(COC(=O)Cc1ccccc1)Nc1ncc(Cl)cc1Cl`, the IC50 [1] was 91.5 µM (inactive).

For `CSC1=NC(C)(C)CC2(CC(c3ccccc3)Oc3cc(O)ccc32)N1` (stereo not given), the EC50 [2] was > 79.4 µM (not active), the EC50 [3] was > 79.4 µM (not active) and the EC50 [4] was > 79.4 µM (not active). The IC50 [5] was > 100 µM (inactive).

In the case of `CCN(CC)C(=O)N1c2ccccc2C=Cc2ccccc21`, the EC50 [6] is reported as 30 µM (active), the CC50 [7] is reported as 9.46 µM (active) and the IC50 [8] is reported as 2.02 µM (active). The EC50 [9] was > 120 µM (not active), the CC50 [10] was > 25 µM (active) and the IC50 [11] was 4.41 µM (active).

In the case of `O=C1/C(=C/C=C/C=C/Nc2ccccc2)SC(=S)N1Cc1ccccc1`, the IC50 [12] is reported as 17.3 µM (not active).

For `Cc1cc(C)cc(NC(=O)Nc2ccc(NC(=O)c3ccccc3O)cc2)c1`, the IC50 [13] was > 80 µM (inactive) and the AC50 [14] was 0.167 µM (active).

With `CCOC(=O)c1ccc(NC(=S)N2CCSC2c2ccc(Br)cc2)cc1` (stereo not given) the CC50 [7] was 14 µM (active), the EC50 [15] was 4.38 µM (active) and the IC50 [8] was 11 µM (active).

With `CCC(C(=O)Nc1ccc(O)c(C(=O)O)c1)c1ccccc1` (stereo not given) the IC50 [16] was > 100 µM (not active).

In the case of `Cn1c2ccc(Br)cc2c2nnc(SCC(=O)O)nc21`, the EC50 [17] is reported as 29.3 µM (active), the EC50 [18] is reported as < 0.1 µM (active) and the EC50 [19] is reported as > 12 µM (not active). For the same molecule, the EC50 [20] was 9.55 µM (active), the EC50 [21] was > 60 µM (not active) and the EC50 [22] was > 12 µM (not active).

With `COc1cccc(-c2noc(CCC(=O)NCCc3ccccc3)n2)c1` the IC50 [13] was > 80 µM (inactive).
